One assay concerns the target T1, FGFR2 (Homo sapiens, UniProt P21802).
T1 construct: made in house; host or cells: E. coli (BL21-derived), T7 phage
Description: Kinase binding assay (kinase-tagged T7 phage, affinity beads, qPCR), Kd. Particulars: read-out: FGFR2 (Kd nM). In a few lines:
(§1)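 First, phage lysates carrying tagged kinase are made in E. coli at 32° C. Next, they are combined with blocked biotin-ligand streptavidin beads and compound at 0.9% final DMSO. Finally, eluted kinase is measured by qPCR and Kd is fitted with the Hill equation.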
Background: In qPCR the cycle at which signal appears reflects the starting amount.

Another assay deals with T2, FGFR3 (Homo sapiens, UniProt P22607).
T2 construct: made in house; host or cells: E. coli (BL21-derived), T7 phage
T2 sequence (P22607 23-806): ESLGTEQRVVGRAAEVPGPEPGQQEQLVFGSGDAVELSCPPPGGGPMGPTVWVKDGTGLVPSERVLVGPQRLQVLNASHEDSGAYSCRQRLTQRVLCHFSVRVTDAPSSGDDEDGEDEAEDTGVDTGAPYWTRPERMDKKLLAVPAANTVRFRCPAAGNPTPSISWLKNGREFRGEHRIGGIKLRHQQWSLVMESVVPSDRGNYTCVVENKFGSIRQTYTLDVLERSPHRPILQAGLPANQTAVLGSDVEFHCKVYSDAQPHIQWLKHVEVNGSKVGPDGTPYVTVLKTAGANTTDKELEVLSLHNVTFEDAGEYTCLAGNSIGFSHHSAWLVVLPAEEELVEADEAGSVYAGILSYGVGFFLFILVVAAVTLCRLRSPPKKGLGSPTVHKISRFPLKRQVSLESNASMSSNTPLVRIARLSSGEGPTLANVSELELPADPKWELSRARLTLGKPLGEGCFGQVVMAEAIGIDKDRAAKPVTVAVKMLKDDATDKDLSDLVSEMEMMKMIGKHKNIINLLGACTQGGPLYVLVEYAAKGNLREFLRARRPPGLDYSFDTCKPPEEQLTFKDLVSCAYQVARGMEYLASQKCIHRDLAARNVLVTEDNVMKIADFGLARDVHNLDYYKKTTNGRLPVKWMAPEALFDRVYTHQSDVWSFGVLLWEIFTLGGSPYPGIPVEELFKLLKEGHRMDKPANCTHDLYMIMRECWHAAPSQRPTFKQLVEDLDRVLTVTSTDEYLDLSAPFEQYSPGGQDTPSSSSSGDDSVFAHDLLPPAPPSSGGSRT
The assay is described as above. Particulars: read-out: FGFR3 (Kd nM). The essentials:
as §1

Another assay concerns the target T3, FGFR1 (Homo sapiens, UniProt P11362).
T3 construct: made in house; host or cells: E. coli (BL21-derived), T7 phage
Described as above. The note with it: read-out: FGFR1 (Kd nM). The essentials:
as §1

In another assay the target is T4, FGFR4 (Homo sapiens, UniProt P22455).
T4 construct: made in house; host or cells: E. coli (BL21-derived), T7 phage
T4 sequence (P22455 22-802): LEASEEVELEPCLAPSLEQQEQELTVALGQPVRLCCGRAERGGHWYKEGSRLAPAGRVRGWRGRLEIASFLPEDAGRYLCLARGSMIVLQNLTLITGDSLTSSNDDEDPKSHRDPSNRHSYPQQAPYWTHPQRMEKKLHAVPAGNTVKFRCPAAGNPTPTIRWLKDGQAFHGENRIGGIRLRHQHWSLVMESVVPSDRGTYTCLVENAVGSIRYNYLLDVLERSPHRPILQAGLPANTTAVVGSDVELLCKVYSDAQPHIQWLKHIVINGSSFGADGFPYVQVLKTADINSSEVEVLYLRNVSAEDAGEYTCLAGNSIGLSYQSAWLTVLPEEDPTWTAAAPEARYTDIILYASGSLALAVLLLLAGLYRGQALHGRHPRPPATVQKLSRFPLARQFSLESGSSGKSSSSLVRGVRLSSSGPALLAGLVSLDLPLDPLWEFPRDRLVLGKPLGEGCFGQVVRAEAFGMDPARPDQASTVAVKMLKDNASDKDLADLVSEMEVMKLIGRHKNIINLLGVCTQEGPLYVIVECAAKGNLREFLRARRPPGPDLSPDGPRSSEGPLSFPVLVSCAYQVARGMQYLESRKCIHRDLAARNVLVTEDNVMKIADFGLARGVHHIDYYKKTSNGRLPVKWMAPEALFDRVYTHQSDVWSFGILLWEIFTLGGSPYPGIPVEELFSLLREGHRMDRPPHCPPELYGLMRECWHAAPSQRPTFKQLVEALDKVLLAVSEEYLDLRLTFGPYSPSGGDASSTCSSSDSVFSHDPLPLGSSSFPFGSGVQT
The assay is described as above. The note with it: read-out: FGFR4 (Kd nM). The essentials:
as §1

Another assay deals with T5, FGFR3 (V555M) (Homo sapiens, UniProt P22607, V555M).
T5 construct: made in house; host or cells: E. coli (BL21-derived), T7 phage
T5 sequence (P22607 23-806 V555M): as the sequence (P22607 23-806) above, with V533M counted along it
The description is as above. Particulars: V555M mutant; read-out: FGFR3 (V555M) (Kd nM). The essentials:
as §1

Assay [1] concerns RT112/84 cell line (FGFR3-fusion). Description: Cancer cell line cell viability assay (Cell Titer-Glo), 72 hr. Type of assay: cell-based. The note with it: Homo sapiens, RT112/84, RT112/84 cell line (FGFR3-fusion). In a few lines:
(§2)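 ATP-based luminescence (Cell Titer-Glo 2.0) measured viability after 72 h (KG-1, RT112/84) or 120 h (MDA-MB-453, HuH7) compound exposure. Dosing was nine 4-fold steps starting at 3 μM, in triplicate, on overnight-plated cells. IC50 came from a variable-slope 4-parameter fit of % DMSO control.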
(In general: ATP-based viability assays read luminescence as a measure of living cells.)

Assay [2] concerns KATO-III cell line (FGFR2 amplification). Described as above. Type of assay: cell-based. The note with it: Homo sapiens, KATO III. The essentials: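 Following overnight attachment, each line receives compound in triplicate across nine 4-fold dilutions starting at 3 μM, with DMSO backfill for equal solvent. Luminescence after Cell Titer-Glo 2.0 addition gives percent viability versus DMSO control, fitted by 4-parameter logistic for IC50.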

For assay [3], the system named is KG-1 cell line (FGFR 1-fusion). Described as above. Type of assay: cell-based. Particulars: Homo sapiens, KG-1, KG-1 cell line (FGFR1-fusion). In a few lines: as §2
Assay [4] concerns MDA-MB-453 cell line (FGFR4-Y367C). Nature of the assay: Cancer cell line cell viability assay (Cell Titer-Glo), 120 hr. The class given is cell-based. Particulars: Homo sapiens. In a few lines:
as §2

T3 sequence (P11362 22-822): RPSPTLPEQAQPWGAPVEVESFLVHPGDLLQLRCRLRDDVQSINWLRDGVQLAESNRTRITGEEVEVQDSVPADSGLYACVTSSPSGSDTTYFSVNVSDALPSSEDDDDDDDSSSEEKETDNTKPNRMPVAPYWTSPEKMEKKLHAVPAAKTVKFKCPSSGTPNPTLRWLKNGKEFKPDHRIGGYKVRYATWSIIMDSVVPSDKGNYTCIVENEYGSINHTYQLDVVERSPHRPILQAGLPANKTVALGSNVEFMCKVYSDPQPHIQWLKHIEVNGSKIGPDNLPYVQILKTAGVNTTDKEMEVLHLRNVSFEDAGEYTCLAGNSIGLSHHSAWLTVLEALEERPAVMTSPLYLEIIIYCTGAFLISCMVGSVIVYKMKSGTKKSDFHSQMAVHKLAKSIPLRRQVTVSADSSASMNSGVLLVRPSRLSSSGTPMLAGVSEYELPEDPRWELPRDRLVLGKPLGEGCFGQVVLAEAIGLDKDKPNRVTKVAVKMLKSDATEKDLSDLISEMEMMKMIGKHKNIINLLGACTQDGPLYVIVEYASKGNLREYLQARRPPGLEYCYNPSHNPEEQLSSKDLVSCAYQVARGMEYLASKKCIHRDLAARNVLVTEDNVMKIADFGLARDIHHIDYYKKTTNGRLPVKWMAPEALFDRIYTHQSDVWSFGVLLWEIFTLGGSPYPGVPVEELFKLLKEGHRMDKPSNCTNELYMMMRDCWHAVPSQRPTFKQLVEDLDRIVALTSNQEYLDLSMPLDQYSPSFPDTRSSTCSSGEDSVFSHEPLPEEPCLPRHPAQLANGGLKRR
T1 sequence (P21802 22-821): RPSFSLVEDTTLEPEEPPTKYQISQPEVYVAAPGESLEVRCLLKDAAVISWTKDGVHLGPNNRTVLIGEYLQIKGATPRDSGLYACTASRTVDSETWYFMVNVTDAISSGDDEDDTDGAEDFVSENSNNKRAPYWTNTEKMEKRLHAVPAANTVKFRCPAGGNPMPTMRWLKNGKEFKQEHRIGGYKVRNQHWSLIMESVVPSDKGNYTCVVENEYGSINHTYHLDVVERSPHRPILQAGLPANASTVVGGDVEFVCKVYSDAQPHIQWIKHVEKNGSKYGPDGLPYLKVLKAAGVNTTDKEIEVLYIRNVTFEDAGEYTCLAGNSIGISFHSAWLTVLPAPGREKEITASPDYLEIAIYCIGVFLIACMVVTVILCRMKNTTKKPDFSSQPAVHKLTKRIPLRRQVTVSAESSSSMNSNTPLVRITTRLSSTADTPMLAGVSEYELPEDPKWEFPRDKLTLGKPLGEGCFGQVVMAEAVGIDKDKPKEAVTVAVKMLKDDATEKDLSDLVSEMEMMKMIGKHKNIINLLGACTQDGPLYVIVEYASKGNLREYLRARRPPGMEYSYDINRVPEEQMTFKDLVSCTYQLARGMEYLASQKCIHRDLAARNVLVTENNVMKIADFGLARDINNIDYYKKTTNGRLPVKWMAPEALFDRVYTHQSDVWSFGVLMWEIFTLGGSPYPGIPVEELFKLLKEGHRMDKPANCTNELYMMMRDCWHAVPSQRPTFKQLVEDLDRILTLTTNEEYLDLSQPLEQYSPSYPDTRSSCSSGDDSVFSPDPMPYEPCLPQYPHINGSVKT

The term Kd denotes the concentration at which binding is half-saturated. For orientation: IC50 means the concentration at which inhibition is half-maximal. Low readings indicate inhibition by little substance, high ones a need for much substance. Consider `C[C@@H](Oc1ccc2[nH]nc(-c3cnc(N4C[C@@H](CS(C)(=O)=O)[C@@H]4C)c(F)c3)c2c1)c1c(Cl)cncc1Cl` [Example 206, 5-((R)-1-(3,5-dichloropyridin-4-yl)ethoxy)-3-(5-fluoro-6-((2S,3R)-2-methyl-3-((methylsulfonyl)methyl)azetidin-1-yl)pyridin-3-yl)-1H-indazole], for which the Kd on FGFR2, at FGFR3, at FGFR1, on FGFR4 and on FGFR3 (V555M) was 1 to 50 nM in each case. The IC50 lay in the range of 0.1 to 50 nM in assay [1], 0.1 to 50 nM in assay [2], 50 to 200 nM in [3] and 50 to 200 nM in [4].

As for `C[C@@H](Oc1ccc2[nH]nc(-c3cnc(N4CC(C)(NCC(F)F)C4)c(F)c3)c2c1)c1c(Cl)cncc1Cl` [Example 155, 1-[5-[5-[(1R)-1-(3,5-dichloro-4-pyridyl)ethoxy]-1H-indazol-3-yl]-3-fluoro-2-pyridyl]-N-(2,2-difluoroethyl)-3-methyl-azetidin-3-amine], the Kd on FGFR2, at FGFR3, on FGFR1, on FGFR4 and at FGFR3 (V555M) was 1 to 50 nM in each case. Also, the 50% inhibitory concentration (IC50) in assay [1] was in the range of 0.1 to 50 nM; in assay [2] it was 0.1 to 50 nM; in assay [3] it was 50 to 200 nM; in [4] it was 50 to 200 nM.

Regarding `C[C@@H](Oc1ccc2[nH]nc(-c3cnc(N4CC(C)(NCC5CC5)C4)c(F)c3)c2c1)c1c(Cl)cncc1Cl` [Example 106, (R)-N-(cyclopropylmethyl)-1-(5-(5-(1-(3,5-dichloropyridin-4-yl)ethoxy)-1H-indazol-3-yl)-3-fluoropyridin-2-yl)-3-methylazetidin-3-amine], the dissociation constant (Kd) on FGFR2, at FGFR3, on FGFR1, on FGFR4 and at FGFR3 (V555M) was 1 to 50 nM each time. Moreover, the IC50 in assay [1] was in the range of 0.1 to 50 nM; in assay [2], 50 to 200 nM; in [3] it was 50 to 200 nM; in [4], 50 to 200 nM.

Consider `CC(=O)N1CCN(C2(C)CN(c3ncc(-c4n[nH]c5ccc(O[C@H](C)c6c(Cl)cncc6Cl)cc45)cc3F)C2)CC1` [Example 220, 1-[4-[1-[5-[5-[(1R)-1-(3,5-dichloro-4-pyridyl)ethoxy]-1H-indazol-3-yl]-3-fluoro-2-pyridyl]-3-methyl-azetidin-3-yl]piperazin-1-yl]ethanone], for which the Kd on FGFR2, at FGFR3, at FGFR1, on FGFR4 and at FGFR3 (V555M) was 1 to 50 nM throughout. Besides, the IC50 in assay [1] lay in the range of 0.1 to 50 nM; in assay [2] it was 0.1 to 50 nM; in [3] it was 50 to 200 nM; in [4], 50 to 200 nM.

`C[C@@H](Oc1ccc2[nH]nc(-c3cnc(N4CC(C)(N5CCS(=O)(=O)CC5)C4)c(F)c3)c2c1)c1c(Cl)cncc1Cl` [Example 167, 4-[1-[5-[5-[(1R)-1-(3,5-dichloro-4-pyridyl)ethoxy]-1H-indazol-3-yl]-3-fluoro-2-pyridyl]-3-methyl-azetidin-3-yl]-1,4-thiazinane 1,1-dioxide]: the dissociation constant Kd on FGFR2, at FGFR3, on FGFR1, at FGFR4 and on FGFR3 (V555M) was 1 to 50 nM each time. For the same compound, the IC50 in assay [1] was 0.1 to 50 nM; in [2], 0.1 to 50 nM; in [3] it was 50 to 200 nM; in assay [4], 0.1 to 50 nM.

For the compound `CC[C@H](C)NC1(C)CN(c2ccc(-c3n[nH]c4ccc(O[C@H](C)c5c(Cl)cncc5Cl)cc34)cn2)C1` [Example 228, 1-[5-[5-[(1R)-1-(3,5-dichloro-4-pyridyl)ethoxy]-1H-indazol-3-yl]-2-pyridyl]-3-methyl-N-[(1S)-1-meth-ylpropyl]azetidin-3-amine], the Kd on FGFR2, at FGFR3, on FGFR1, on FGFR4 and on FGFR3 (V555M) was 1 to 50 nM in each case. Moreover, the IC50 in [1] fell in the range of 0.1 to 50 nM; in assay [2], 0.1 to 50 nM; in assay [3], 50 to 200 nM; in assay [4], 50 to 200 nM.

Take `C[C@@H](Oc1ccc2[nH]nc(-c3cnc(N4CC(C)(NC(=O)CN(C)C)C4)c(F)c3)c2c1)c1c(Cl)cncc1Cl` (stereo in doubt) [Example 156, N-(1-(5-(5-(1-(3,5-dichloropyridin-4-yl)ethoxy)-1H-indazol-3-yl)-3-fluoropyridin-2-yl)-3-methylazetidin-3-yl)-2-(dimethylamino)-acetamide]: the Kd on FGFR2, on FGFR3, at FGFR1, at FGFR4 and on FGFR3 (V555M) was 1 to 50 nM in each case. Besides, the IC50 lay in the range of 0.1 to 50 nM in assay [1], 0.1 to 50 nM in assay [2], 50 to 200 nM in assay [3] and 50 to 200 nM in assay [4].

`C[C@@H](Oc1ccc2[nH]nc(-c3cnc(N4CC(C)(N(C)CC5CC5)C4)c(F)c3)c2c1)c1c(Cl)cncc1Cl` [Example 246, (R)-N-(cyclopropyl-methyl)-1-(5-(5-(1-(3,5-dichloropyridin-4-yl)ethoxy)-1H-indazol-3-yl)-3-fluoropyridin-2-yl)-N,3-dimethylazetidin-3-amine]: the Kd on FGFR3 and on FGFR1 was 1 to 50 nM each time. In addition, the IC50 lay within 0.1 to 50 nM in assay [1], 50 to 200 nM in [2], 200 to 1000 nM in assay [3] and 200 to 1000 nM in assay [4].

Regarding `CC(C)CN(C)C1(C)CN(c2ncc(-c3n[nH]c4ccc(O[C@H](C)c5c(Cl)cncc5Cl)cc34)cc2F)C1` [Example 245, (R)-1-(5-(5-(1-(3,5-dichloropyridin-4-yl)ethoxy)-1H-indazol-3-yl)-3-fluoropyridin-2-yl)-N-isobutyl-N,3-dimethylazetidin-3-amine], the results for the Kd on FGFR3 and on FGFR1 were 1 to 50 nM and 50 to 300 nM, respectively. The half-maximal inhibitory concentration (IC50) in [1] was 50 to 200 nM; in assay [2], > 1000 nM; in assay [3], > 1000 nM; in [4], > 1000 nM.

Turning to `C[C@@H](Oc1ccc2[nH]nc(-c3ccc(N4CC(N)(Cc5ccnn5C)C4)nn3)c2c1)c1c(Cl)cncc1Cl` [Example 281, (R)-1-(6-(5-(1-(3,5-dichloropyridin-4-yl)ethoxy)-1H-indazol-3-yl)pyridazin-3-yl)-3-((1-methyl-1H-pyrazol-5-yl)methyl)azetidin-3-amine], the Kd at FGFR3 and at FGFR1 was 1 to 50 nM in each case. In addition, the IC50 fell in the range of 0.1 to 50 nM in [1], 0.1 to 50 nM in assay [2], 50 to 200 nM in assay [3] and 200 to 1000 nM in assay [4].

Regarding `C=CCC1(N)CN(c2ncc(-c3n[nH]c4ccc(O[C@H](C)c5c(Cl)cncc5Cl)cc34)cc2F)C1` [Example 264, (R)-3-ally1-1-(5-(5-(1-(3,5-dichloropyridin-4-yl)ethoxy)-1H-indazol-3-yl)-3-fluoropyridin-2-yl)azetidin-3-amine], the Kd at FGFR3 and on FGFR1 was 1 to 50 nM throughout. The IC50 is 0.1 to 50 nM in assay [1], 50 to 200 nM in [2], 50 to 200 nM in assay [3] and 50 to 200 nM in [4].

With `C[C@@H](Oc1ccc2[nH]nc(-c3cnc(N4CC(N)(c5cnn(C)c5)C4)c(F)c3)c2c1)c1c(Cl)cncc1Cl` [Example 277, (R)-1-(5-(5-(1-(3,5-dichloropyridin-4-yl)ethoxy)-1H-indazol-3-yl)-3-fluoropyridin-2-yl)-3-(1-methyl-1H-pyrazol-4-yl)azetidin-3-amine], the Kd on FGFR3 and at FGFR1 was 1 to 50 nM throughout. Also, the IC50 is 0.1 to 50 nM in [1], 0.1 to 50 nM in [2], 50 to 200 nM in assay [3] and 0.1 to 50 nM in assay [4].

`C[C@@H](Oc1ccc2[nH]nc(-c3cnc(N4CC(N)(CCF)C4)c(F)c3)c2c1)c1c(Cl)cncc1Cl` [Example 284, (R)-1-(5-(5-(1-(3,5-dichloropyridin-4-yl)ethoxy)-1H-indazol-3-yl)-3-fluoropyridin-2-yl)-3-(2-fluoroethyl)azetidin-3-amine]: the equilibrium dissociation constant (Kd) at FGFR3 and at FGFR1 was 1 to 50 nM each time. The IC50 was 0.1 to 50 nM in assay [1], 0.1 to 50 nM in [2], 50 to 200 nM in [3] and 0.1 to 50 nM in assay [4].

These data come from patent US20250368666A1, “INDAZOLE COMPOUNDS” (TYRA BIOSCIENCES, INC., priority 2022, published 2025).
